Experimental data reported in patent US7973039B2, “Sulfonyl amino cyclic derivatives and use thereof” (Merck Serono SA, priority 2004, dated 2011).

Tests used:
metalloelastase (MMP-12) = metalloelastase (MMP-12) (Homo sapiens, UniProt P39900); assay: MMP-12 enzyme inhibition assay (coumarin-labelled peptide substrate McaPLGLDpaAR); type: biochemical; conditions: fluorogenic substrate McaPLGLDpaAR, 37° C., 2 hours
Procedure: (§1) Compounds of the invention were tested to assess their activities as inhibitors of MMP-1, MMP-2, MMP-9 and MMP-12.
(§2) Stock solutions were made up as follows: Assay Butter: 100 mM Tris-HCl pH 7.6 containing 100 mM NaCl, 10 mM CaCl2, and 0.05% Brij 35.
Substrate: 0.4 mM McaPLGLDpaAR (from Bachem) (0.437 mg/ml) stock solution in 100% DMSO (stored at −20° C.). Dilute to 8 μM in assay butter. […]
(§3) Test Compounds were prepared initially as 10 mM compound solution in 100% DMSO, diluted to 1 mM in 100% DMSO, then serially diluted 3-fold in 100% DMSO across columns 1-10 of a 96-well microtitre plate Assay concentration range, 100 μM (column 1) to 5.1 nM (column 10).
(§4) The assay was performed in a total volume of 100 μL per well in 96-well microtitre plates. Activated enzyme (20 μL) was added to the wells followed by 20 μL of assay butter. Appropriate concentrations of test compounds dissolved in 10 μL of DMSO were then added followed by 50 μL of McaPLGLDpaAR (8 μM, prepared by dilution of DMSO stock in assay butter). For each as say ten concentrations of test compound were examined in duplicate. Control wells lack either enzyme or test compound. The reactions were incubated at 37° C. for 2 hours. The fluorescence at 405 nm was measured immediately with an SLT Fluostar fluorometer (SL T Labinstruments GmbH, Grödig, Austria) using 320 nm excitation, without stopping the reaction.
(§5) The effect of the test compound was determined from the dose response curve generated by the 10 duplicate concentrations of inhibitor. The IC50 (the concentration of compound required to give a 50% decrease in enzyme activity) was obtained by fitting data to the equation, Y=a+((b−a)/(1+(c/X)^d)). (Y=inhibition achieved for a particular dose; X=the dose in nM; a=minimum y or zero % inhibition; b=maximum y or 100% inhibition; c=is the IC50; d=is the slope). The result was rounded to one significant figure.
Compounds of the invention were tested for inhibitory activity against metalloelastase (MMP-12) in an assay using a coumarin-labelled peptide substrate, (7-methoxycoumarin-4-yl)acetyl-Pro-Leu-Gly-Leu-(3-[2,4dinitrophenyl]-L-2,3-diaminopropionyl)-Ala-Arg-NH2 (McaPLGLDpaAR) (Knight et al, 1992, above). The protocol for this assay was as described for the MMP-9 assay above.

collagenase (MMP-1) = molecular target: T1, collagenase (MMP-1) (Homo sapiens, UniProt P03956); assay: MMP-1 enzyme inhibition assay (coumarin-labelled peptide substrate McaPLGLDpaAR); type: biochemical; conditions: fluorogenic substrate McaPLGLDpaAR, 37° C., 2 hours
T1 sequence (P03956 100-469): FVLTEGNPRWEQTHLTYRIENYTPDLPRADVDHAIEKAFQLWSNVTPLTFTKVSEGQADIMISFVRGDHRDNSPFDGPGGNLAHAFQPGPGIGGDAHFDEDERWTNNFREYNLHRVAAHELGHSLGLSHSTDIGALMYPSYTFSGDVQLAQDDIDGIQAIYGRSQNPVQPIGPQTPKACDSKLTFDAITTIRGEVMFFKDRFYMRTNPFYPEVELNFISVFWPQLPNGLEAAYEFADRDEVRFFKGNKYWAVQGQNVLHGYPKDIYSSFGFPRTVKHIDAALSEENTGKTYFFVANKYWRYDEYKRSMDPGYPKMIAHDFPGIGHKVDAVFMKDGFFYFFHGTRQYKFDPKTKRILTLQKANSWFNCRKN
Procedure: as §1, §2
Substrate: 0.4 mM McaPLGLDpaAR (from Bachem) (0.437 mg/ml) stock solution in 100% DMSO (stored at −20° C.). Dilute to 8 μM in assay butter.
Enzyme: Recombinant human 92 kDa gelatinase (MMP-9; APMA (4-aminophenyl mercuric acetate)—activated if necessary) appropriately diluted in assay butter.
as §3, §4, §5
Compounds of the invention were tested for inhibitory activity against collagenase (MMP-1) in an assay using a coumarin-labelled peptide substrate, (7-methoxycoumarin-4-yl)acetyl-Pro-Leu-Gly-Leu-(3-[2,4-dinitrophenyl]-L-2,3diaminopropionyl)-Ala-Arg-NH2 (McaPLGLDpaAR) (Knight et al, 1992, above). The protocol for this assay was as described for the MMP-9 assay above.

[1] = test system: IL-2-induced peritoneal recruitment of lymphocytes; assay: IL-2-induced peritoneal recruitment of lymphocytes; type: in vivo, C3H/HEN mice; conditions: Mus musculus, Lymphocyte; mice, route po, given 15 min prior to IL-2 (20 μg/kg i.p.), lymphocytes counted 24 h after IL-2; read-out: ED50 in IL-2-induced peritoneal recruitment of lymphocytes model
Procedure: Administration of IL-2 intraperitoneally causes migration of lymphocytes into the intraperitoneal cavity. This is a model for the cellular migration that occurs during inflammation.
C3H/HEN mice (Elevage Janvier, France) were intraperitoneally injected with IL-2 (Serono Pharmaceutical Research Institute, 20 μg/kg, in saline).
Compounds of the invention were suspended in 0.5% carboxymethylcellulose (CMC)/0.25% tween-20 and were administered by s.c. or p.o. route (10 ml/kg) 15 min prior to administration of IL-2.
Twenty-four hours after administration of IL-2, peritoneal white blood cells were collected by 3 successive lavages of the peritoneal cavity with 5 ml phosphate buffered saline (PBS)-1 mM EDTA (+4° C.). The suspension was centrifuged (1700 g×10 min at +4° C.). The resulting pellet was suspended in 1 ml PBS-1 mM EDTA.
Lymphocytes were identified and counted using a Beckman/Coulter counter.
The animals were divided into 6 groups (6 mice each group):
Group 1: (baseline) received 0.5% CMC/0.25% tween-20 (vehicle of compound of the invention) and saline (vehicle of IL-2);
Group 2: (control IL-2) received 0.5% CMC/0.25% tween-20 and injection of IL-2;
Group 3: Experimental group (Compound of the invention Dose 1) received a compound of the invention and injection of IL-2; […]
Inhibition of lymphocyte recruitment was calculated as follows: […]

metalloelastase (MMP-12), sequence (P39900 106-470): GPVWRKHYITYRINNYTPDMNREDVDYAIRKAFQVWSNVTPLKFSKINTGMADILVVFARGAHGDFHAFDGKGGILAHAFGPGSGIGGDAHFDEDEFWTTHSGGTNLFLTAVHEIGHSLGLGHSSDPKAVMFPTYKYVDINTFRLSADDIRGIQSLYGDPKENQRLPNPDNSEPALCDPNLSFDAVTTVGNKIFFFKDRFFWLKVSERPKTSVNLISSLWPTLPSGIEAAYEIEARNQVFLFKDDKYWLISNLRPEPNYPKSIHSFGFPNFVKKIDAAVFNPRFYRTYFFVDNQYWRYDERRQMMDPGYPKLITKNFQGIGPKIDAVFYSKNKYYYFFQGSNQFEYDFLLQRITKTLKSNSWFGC

| Structure (SMILES) | IC50 (metalloelastase (MMP-12)) [nM] | IC50 (collagenase (MMP-1)) [nM] | ED50 [1] [mg/kg] |
| --- | --- | --- | --- |
| O=CN(O)C(C#CCc1ccccc1)CS(=O)(=O)N1CCN(c2ccc(F)cc2)CC1 (centres unmarked) [Example 6, 1-({[4-(4-fluorophenyl)-1-piperazinyl]sulfonyl}methyl)-4-phenyl-2-butynyl (hydroxy)formamide] | 21 | > 5000 |  |
| COc1ccc(N2CCN(S(=O)(=O)CC(C#Cc3cccnc3)N(O)C=O)CC2)cc1 (centres unmarked) [Example 9, hydroxy[1-({[4-(4-methoxyphenyl)-1-piperazinyl]sulfonyl}methyl)-3-(3-pyridinyl)-2-propynyl]formamide] | 48 | > 5000 |  |
| O=CN(O)C(C#Cc1ccc2c(c1)OCO2)CS(=O)(=O)N1CCN(c2ccc(F)cc2)CC1 (centres unmarked) [Example 1, 3-(1,3-benzodioxol-5-yl)-1 ({[4-(4-fluorophenyl)-1-piperazinyl]sulfonyl}methyl)-2-propynyl(hydroxy)formamide] | 46 | > 5000 | 0.8 |
| COc1ccc(N2CCN(S(=O)(=O)CC(C#Cc3cccc(OC)c3)N(O)C=O)CC2)cc1 (centres unmarked) [Example 10, hydroxy[3-(3-methoxyphenyl)-1-({[4-(4-methoxyphenyl)-1-piperazinyl]sulfonyl}methyl)-2-propynyl]formamide] | 33 | > 5000 |  |
| CCCCCC#CC(CS(=O)(=O)N1CCN(c2ccc(F)cc2)CC1)N(O)C=O (centres unmarked) [Example 7, 1-({[4-(4-fluorophenyl)-1-piperazinyl]sulfonyl}methyl)-2-octynyl(hydroxy)formamide] | 20 | > 5000 | 2 |
| O=CN(O)C(C#Cc1ccc(-c2ncon2)cc1)CS(=O)(=O)N1CCN(c2ccc(F)cc2)CC1 (centres unmarked) [Example 27, {1-({[4-(4-fluorophenyl)piperazin-1-yl]sulfonyl}methyl)-3-[4-(1,2,4-oxadiazol-3-yl)phenyl]prop-2-yn-1-yl}hydroxyformamide] | 95 | > 5000 |  |
| CCCCCC#CC(CS(=O)(=O)N1CCC(c2ccc(OC)cc2)CC1)N(O)C=O (centres unmarked) [Example 19] | 18 | > 5000 |  |
| CCN(CC)CC#CC(CS(=O)(=O)N1CCC(c2ccc(OC)cc2)CC1)N(O)C=O (centres unmarked) [Example 37, [4-(diethylamino)-1-({[4-(4-methyloxyphenyl)piperidin-1-yl]sulfonyl}methyl)but-2-yn-1-yl]hydroxyformamide] | 6 | > 5000 |  |
| O=CN(O)C(C#CCN1CCCC1)CS(=O)(=O)N1CCN(c2ccc(F)cc2)CC1 (centres unmarked) [Example 64, [1-({[4-(4-fluorophenyl)piperazin-1-yl]sulfonyl}methyl)-4-pyrrolidin-1-ylbut-2-yn-1-yl]hydroxyformamide] | 40 | > 5000 |  |
| O=CN(O)C(C#Cc1ccccc1)CS(=O)(=O)N1CCN(c2ccc(F)cc2)CC1 (centres unmarked) [Example 4, 1-({[4-(4-fluorophenyl)-1-piperazinyl]sulfonyl}methyl)-3-phenyl-2-propynyl(hydroxy)formamide] | 58 | > 5000 |  |
| CC(C)(CC#Cc1ccccc1)C(CS(=O)(=O)N1CCN(c2ccc(F)cc2)CC1)N(O)C=O (centres unmarked) [Example 36, [1-({[4-(4-fluorophenyl)piperazin-1-yl]sulfonyl}methyl)-2,2-dimethyl-5-phenylpent-4-yn-1-yl]hydroxyformamide] | 20 | > 5000 |  |
| CCCCCC#CC(CS(=O)(=O)N1CCCN(c2ccc(OCC)cc2)CC1)N(O)C=O (centres unmarked) [Example 61, [1-({[4-(4-ethyloxyphenyl)-1,4-diazepan-1-yl]sulfonyl}methyl)oct-2-yn-1-yl]hydroxyformamide] | 24 | > 5000 |  |
